Data taken from patent publication US5571836A, “Viral attachment inhibitors” (priority 1995, dated 1996).
Structures can show the parent of a compound that is named as a salt.

Columns and labels:
[1] = assay type: physicochemical; details: control solutions without enzyme
Experimental: (§1) Compound (IV) was incubated at 37° C. with Vibrio cholerae neuraminidase (450 U/ml) in 0.1M acetate buffer, pH 5.6, containing 0.9% NaCi and 0.1% CaCl2. Neuraminidase cleavage was determined on aliquots taken at intervals by TLC analysis (Merck silica gel plates in propanol/ethanol/25% aqueous ammonia, 2:2:1). Spots were developed by charring the plates with 3% H3 PO4 at 150° C. and quantitated densitometrically. The results are depicted in The FIGURE (v).

[2] = tested on: influenza virus Texas/1/77; assay: Fetuin binding inhibition assay, influenza virus Texas/1/77; details: for A^i (absorbance): 492 nm
[3] = tested on: influenza virus B/Singapore/222/79; assay: Fetuin binding inhibition assay, influenza virus B/Singapore/222/79; details: for A^i (absorbance): 492 nm
[4] = tested on: influenza virus Chile/1/83; assay: Fetuin binding inhibition assay, influenza virus Chile/1/83; details: for A^i (absorbance): 492 nm
[5] = tested on: influenza virus Port Chalmers/1/73; assay: Fetuin binding inhibition assay, influenza virus Port Chalmers/1/73; details: for A^i (absorbance): 492 nm
[6] = tested on: influenza virus X-31; assay: Fetuin binding inhibition assay, influenza virus X-31; details: for A^i (absorbance): 492 nm
[7] = biological target: Vibrio cholerae neuraminidase (Vibrio cholerae, UniProt P0C6E9); assay: Neuraminidase cleavage (resistance), TLC analysis; assay type: biochemical; details: 37° C., 450 U/ml, pH 5.6; compared with compound (IV)
Sequence of Vibrio cholerae neuraminidase (P0C6E9 25-781): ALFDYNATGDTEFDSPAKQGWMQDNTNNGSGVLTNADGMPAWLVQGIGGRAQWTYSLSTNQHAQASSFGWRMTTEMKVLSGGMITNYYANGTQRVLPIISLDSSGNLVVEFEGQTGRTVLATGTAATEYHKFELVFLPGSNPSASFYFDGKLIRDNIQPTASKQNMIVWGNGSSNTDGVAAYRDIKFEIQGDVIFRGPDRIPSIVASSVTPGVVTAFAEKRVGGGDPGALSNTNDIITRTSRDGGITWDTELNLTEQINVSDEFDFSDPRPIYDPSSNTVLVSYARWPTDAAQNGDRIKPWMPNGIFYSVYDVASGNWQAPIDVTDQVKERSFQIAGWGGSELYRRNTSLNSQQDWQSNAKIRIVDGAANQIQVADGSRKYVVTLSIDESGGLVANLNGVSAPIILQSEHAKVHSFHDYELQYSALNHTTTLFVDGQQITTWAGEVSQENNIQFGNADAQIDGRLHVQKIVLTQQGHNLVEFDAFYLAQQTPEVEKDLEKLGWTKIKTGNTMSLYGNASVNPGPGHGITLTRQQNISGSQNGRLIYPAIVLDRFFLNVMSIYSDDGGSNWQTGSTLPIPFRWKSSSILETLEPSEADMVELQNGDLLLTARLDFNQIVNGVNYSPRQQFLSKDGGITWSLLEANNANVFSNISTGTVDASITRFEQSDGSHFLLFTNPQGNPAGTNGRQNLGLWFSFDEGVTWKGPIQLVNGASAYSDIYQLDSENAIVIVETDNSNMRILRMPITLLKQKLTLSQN
Experimental: as §1

[8] = tested on: influenza virus hemagglutinin; details: prior art; cited from earlier work
[9] = tested on: influenza virus Taiwan/1/86; assay: Fetuin binding inhibition assay, influenza virus Taiwan/1/86; details: for A^i (absorbance): 492 nm
[10] = tested on: neuraminidase; details: prior art; cited from earlier work
[11] = tested on: influenza virus England/321/77; assay: Fetuin binding inhibition assay, influenza virus England/321/77; details: for A^i (absorbance): 492 nm
[12] = tested on: influenza virus USSR/90/77; assay: Fetuin binding inhibition assay, influenza virus USSR/90/77; details: for A^i (absorbance): 492 nm
[13] = tested on: influenza virus B/USSR/100/83; assay: Fetuin binding inhibition assay, influenza virus B/USSR/100/83; details: for A^i (absorbance): 492 nm
[14] = tested on: influenza virus Victoria/3/75; assay: Fetuin binding inhibition assay, influenza virus Victoria/3/75; details: for A^i (absorbance): 492 nm
[15] = tested on: influenza virus USSR/3/85; assay: Fetuin binding inhibition assay, influenza virus USSR/3/85; details: for A^i (absorbance): 492 nm
[16] = tested on: influenza virus B/Hong Kong/8/73; assay: Fetuin binding inhibition assay, influenza virus B/Hong Kong/8/73; details: for A^i (absorbance): 492 nm
[17] = tested on: influenza virus Philippines/2/82; assay: Fetuin binding inhibition assay, influenza virus Philippines/2/82; details: for A^i (absorbance): 492 nm
[18] = tested on: influenza virus USSR/2/85; assay: Fetuin binding inhibition assay, influenza virus USSR/2/85; details: for A^i (absorbance): 492 nm

CC(=O)NC1C(O)CC(OCc2ccccc2)(C(=O)O)OC1C(O)C(O)CO [IX, benzyl 5-acetamido-3,5-dideoxy-α-D-glycero-D-galacto-nonulopyranosidonic acid (sodium salt), reference compound]
Stability in the absence of enzyme [1]: at least 23 hours
-lgKd(i) ([2]; 1.60 mM sialoside): 5.1
A^i (absorbance) ([2]; 1.60 mM sialoside): 0.04
-lgKd(i) ([2]; .05 mM sialoside): 4.8
A^i (absorbance) ([2]; .05 mM sialoside): 0.77
-lgKd(i) ([2]; .10 mM sialoside): 4.9
A^i (absorbance) ([2]; .10 mM sialoside): 0.55
-lgKd(i) ([2]; .20 mM sialoside): 5.0
A^i (absorbance) ([2]; .20 mM sialoside): 0.30
-lgKd(i) ([2]; .40 mM sialoside): 4.9
A^i (absorbance) ([2]; .40 mM sialoside): 0.20
-lgKd(i) ([2]; .80 mM sialoside): 5.0
A^i (absorbance) ([2]; .80 mM sialoside): 0.09
-lgKd ± SD ([2]; mean over concentrations): 5.0 ± 0.1
-lgKd(i) ([3]; 1.28 mM sialoside): 3.4
A^i (absorbance) ([3]; 1.28 mM sialoside): 0.39
-lgKd(i) ([3]; .16 mM sialoside): 3.4
A^i (absorbance) ([3]; .16 mM sialoside): 0.85
-lgKd(i) ([3]; .32 mM sialoside): 3.3
A^i (absorbance) ([3]; .32 mM sialoside): 0.76
-lgKd(i) ([3]; .64 mM sialoside): 3.2
A^i (absorbance) ([3]; .64 mM sialoside): 0.65
-lgKd ± SD ([3]; mean over concentrations): 3.3 ± 0.1
-lgKd(i) ([4]; 1.28 mM sialoside): 3.4
A^i (absorbance) ([4]; 1.28 mM sialoside): 0.42
-lgKd(i) ([4]; .16 mM sialoside): 3.2
A^i (absorbance) ([4]; .16 mM sialoside): 0.9
-lgKd(i) ([4]; .32 mM sialoside): 3.4
A^i (absorbance) ([4]; .32 mM sialoside): 0.72
-lgKd(i) ([4]; .64 mM sialoside): 3.3
A^i (absorbance) ([4]; .64 mM sialoside): 0.62
-lgKd ± SD ([4]; mean over concentrations): 3.3 ± 0.1
-lgKd(i) ([5]; 1.60 mM sialoside): 3.4
A^i (absorbance) ([5]; 1.60 mM sialoside): 0.20
-lgKd(i) ([5]; .05 mM sialoside): 3.7
A^i (absorbance) ([5]; .05 mM sialoside): 0.51
-lgKd(i) ([5]; .10 mM sialoside): 4.1
A^i (absorbance) ([5]; .10 mM sialoside): 0.36
-lgKd(i) ([5]; .20 mM sialoside): 3.8
A^i (absorbance) ([5]; .20 mM sialoside): 0.36
-lgKd(i) ([5]; .40 mM sialoside): 3.6
A^i (absorbance) ([5]; .40 mM sialoside): 0.33
-lgKd(i) ([5]; .80 mM sialoside): 3.5
A^i (absorbance) ([5]; .80 mM sialoside): 0.28
-lgKd ± SD ([5]; mean over concentrations): 3.7 ± 0.3
-lgKd(i) ([6]; 1.28 mM sialoside): 2.8
A^i (absorbance) ([6]; 1.28 mM sialoside): 0.66
-lgKd(i) ([6]; .32 mM sialoside): 3.1
A^i (absorbance) ([6]; .32 mM sialoside): 0.86
-lgKd(i) ([6]; .64 mM sialoside): 2.7
A^i (absorbance) ([6]; .64 mM sialoside): 0.84
-lgKd ± SD ([6]; mean over concentrations): 2.9 ± 0.21
Neuraminidase cleavage [7]: cleaved much more rapidly
Inhibition of attachment [8]: shows greater inhibition of attachment than 5-acetyl neuraminic acid itself
-lgKd(i) ([9]; 1.28 mM sialoside): 3.0
A^i (absorbance) ([9]; 1.28 mM sialoside): 0.22
-lgKd(i) ([9]; .32 mM sialoside): 2.8
A^i (absorbance) ([9]; .32 mM sialoside): 0.36
-lgKd(i) ([9]; .64 mM sialoside): 2.9
A^i (absorbance) ([9]; .64 mM sialoside): 0.31
-lgKd ± SD ([9]; mean over concentrations): 2.9 ± 0.1
Susceptibility to neuraminidase cleavage [10]: not immune to this cleavage
-lgKd(i) ([11]; .08 mM sialoside): 4.4
A^i (absorbance) ([11]; .08 mM sialoside): 0.49
-lgKd(i) ([11]; .16 mM sialoside): 4.6
A^i (absorbance) ([11]; .16 mM sialoside): 0.21
-lgKd(i) ([11]; .32 mM sialoside): 4.5
A^i (absorbance) ([11]; .32 mM sialoside): 0.13
-lgKd(i) ([11]; .64 mM sialoside): 4.8
A^i (absorbance) ([11]; .64 mM sialoside): 0.04
-lgKd ± SD ([11]; mean over concentrations): 4.5 ± 0.1
-lgKd(i) ([12]; 1.28 mM sialoside): 2.8
A^i (absorbance) ([12]; 1.28 mM sialoside): 0.6
-lgKd(i) ([12]; .16 mM sialoside): 3.1
A^i (absorbance) ([12]; .16 mM sialoside): 0.8
-lgKd(i) ([12]; .32 mM sialoside): 3.1
A^i (absorbance) ([12]; .32 mM sialoside): 0.7
-lgKd ± SD ([12]; mean over concentrations): 3.0 ± 0.17
-lgKd(i) ([13]; 1.28 mM sialoside): 3.1
A^i (absorbance) ([13]; 1.28 mM sialoside): 0.9
-lgKd(i) ([13]; .16 mM sialoside): 3.6
A^i (absorbance) ([13]; .16 mM sialoside): 1.2
-lgKd(i) ([13]; .32 mM sialoside): 3.6
A^i (absorbance) ([13]; .32 mM sialoside): 1.0
-lgKd ± SD ([13]; mean over concentrations): 3.4 ± 0.3
-lgKd(i) ([14]; 1.60 mM sialoside): 4.2
A^i (absorbance) ([14]; 1.60 mM sialoside): 0.09
-lgKd(i) ([14]; .05 mM sialoside): 4.0
A^i (absorbance) ([14]; .05 mM sialoside): 0.64
-lgKd(i) ([14]; .10 mM sialoside): 4.0
A^i (absorbance) ([14]; .10 mM sialoside): 0.58
-lgKd(i) ([14]; .20 mM sialoside): 4.05
A^i (absorbance) ([14]; .20 mM sialoside): 0.45
-lgKd(i) ([14]; .40 mM sialoside): 4.1
A^i (absorbance) ([14]; .40 mM sialoside): 0.31
-lgKd(i) ([14]; .80 mM sialoside): 4.2
A^i (absorbance) ([14]; .80 mM sialoside): 0.16
-lgKd ± SD ([14]; mean over concentrations): 4.1 ± 0.08
-lgKd(i) ([15]; 1.28 mM sialoside): 4.5
A^i (absorbance) ([15]; 1.28 mM sialoside): 0.06
-lgKd(i) ([15]; .08 mM sialoside): 4.5
A^i (absorbance) ([15]; .08 mM sialoside): 0.5
-lgKd(i) ([15]; .16 mM sialoside): 4.6
A^i (absorbance) ([15]; .16 mM sialoside): 0.28
-lgKd(i) ([15]; .32 mM sialoside): 4.6
A^i (absorbance) ([15]; .32 mM sialoside): 0.16
-lgKd(i) ([15]; .64 mM sialoside): 4.6
A^i (absorbance) ([15]; .64 mM sialoside): 0.08
-lgKd ± SD ([15]; mean over concentrations): 4.6 ± 0.05
-lgKd(i) ([16]; 1.28 mM sialoside): 3.0
A^i (absorbance) ([16]; 1.28 mM sialoside): 0.32
-lgKd(i) ([16]; .32 mM sialoside): 2.7
A^i (absorbance) ([16]; .32 mM sialoside): 0.55
-lgKd(i) ([16]; .64 mM sialoside): 2.8
A^i (absorbance) ([16]; .64 mM sialoside): 0.48
-lgKd ± SD ([16]; mean over concentrations): 2.8 ± 0.15
-lgKd(i) ([17]; .05 mM sialoside): 5.2
A^i (absorbance) ([17]; .05 mM sialoside): 0.35
-lgKd(i) ([17]; .10 mM sialoside): 5.3
A^i (absorbance) ([17]; .10 mM sialoside): 0.18
-lgKd(i) ([17]; .20 mM sialoside): 5.4
A^i (absorbance) ([17]; .20 mM sialoside): 0.08
-lgKd(i) ([17]; .40 mM sialoside): 5.4
A^i (absorbance) ([17]; .40 mM sialoside): 0.05
-lgKd(i) ([17]; .80 mM sialoside): 5.3
A^i (absorbance) ([17]; .80 mM sialoside): 0.03
-lgKd ± SD ([17]; mean over concentrations): 5.3 ± 0.08
-lgKd(i) ([18]; 1.28 mM sialoside): 3.5
A^i (absorbance) ([18]; 1.28 mM sialoside): 0.12
-lgKd(i) ([18]; .32 mM sialoside): 3.1
A^i (absorbance) ([18]; .32 mM sialoside): 0.32
-lgKd(i) ([18]; .64 mM sialoside): 3.3
A^i (absorbance) ([18]; .64 mM sialoside): 0.25
-lgKd ± SD ([18]; mean over concentrations): 3.3 ± 0.2
